Measurements taken from PubChem BioAssay AID2060501 (Molecular Pharmacology Branch, DTP, NCI, 2025).

Test system: 282377-053-R-J1-PDC complex spheroids, viability
Assay: Anticancer human tumor 282377-053-R-J1-PDC patient-derived colon adenocarcinoma cell line growth inhibition [GQUAD]
Details: for IC50: curve of first compound; for viability, T/C: stronger effect = lower value
Summary of the method: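 Multi-cell-type spheroids of tumor cells with HUVEC and mesenchymal stem cells, treated with drug combinations. Concentrations descend in half-log steps from near clinical Cmax, or from 10 microM where Cmax is unknown; viability read-out.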

[1] = second compound 0.0316 µM, first compound 0.0316 µM
[2] = second compound 0.0316 µM, first compound 0.1 µM
[3] = second compound 0.0316 µM, first compound 0.316 µM
[4] = second compound 0.0316 µM, first compound 1 µM
[5] = second compound 0.0316 µM, first compound 3.16 µM
[6] = second compound 0.0316 µM, first compound 10 µM
[7] = second compound 0.1 µM, first compound 0.0316 µM
[8] = second compound 0.1 µM, first compound 0.1 µM
[9] = second compound 0.1 µM, first compound 0.316 µM
[10] = second compound 0.1 µM, first compound 1 µM
[11] = second compound 0.1 µM, first compound 3.16 µM
[12] = second compound 0.1 µM, first compound 10 µM
[13] = second compound 0.316 µM, first compound 0.0316 µM
[14] = second compound 0.316 µM, first compound 0.1 µM
[15] = second compound 0.316 µM, first compound 0.316 µM
[16] = second compound 0.316 µM, first compound 1 µM
[17] = second compound 0.316 µM, first compound 3.16 µM
[18] = second compound 0.316 µM, first compound 10 µM
[19] = second compound 1 µM, first compound 0.0316 µM
[20] = second compound 1 µM, first compound 0.1 µM
[21] = second compound 1 µM, first compound 0.316 µM
[22] = second compound 1 µM, first compound 1 µM
[23] = second compound 1 µM, first compound 3.16 µM
[24] = second compound 1 µM, first compound 10 µM
[25] = second compound 3.16 µM, first compound 0.0316 µM
[26] = second compound 3.16 µM, first compound 0.1 µM
[27] = second compound 3.16 µM, first compound 0.316 µM
[28] = second compound 3.16 µM, first compound 1 µM
[29] = second compound 3.16 µM, first compound 3.16 µM
[30] = second compound 3.16 µM, first compound 10 µM
[31] = second compound 10 µM, first compound 0.0316 µM
[32] = second compound 10 µM, first compound 0.1 µM
[33] = second compound 10 µM, first compound 0.316 µM
[34] = second compound 10 µM, first compound 1 µM
[35] = second compound 10 µM, first compound 3.16 µM
[36] = second compound 10 µM, first compound 10 µM
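Note: spheroids exposed to compounds for 7 days before readout.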
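Throughout, for viability, T/C: percent of vehicle DMSO control viability with 100% = untreated-like growth.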

For `C=CC(=O)N1CCN(c2nc(=O)n(-c3c(C)ccnc3C(C)C)c3nc(-c4c(O)cccc4F)c(F)cc23)C(C)C1` (stereo unspecified) + Cc1[nH]c2ccc(F)cc2c1-c1nc2c3cccnc3c3ncccc3c2[nH]1, the IC50 (second compound 0.0316 µM) was over 10 µM, the IC50 (second compound 0.1 µM) was over 10 µM and the IC50 (second compound 0.316 µM) was over 10 µM. It also gave an IC50 (second compound 1 µM) of over 10 µM, an IC50 (second compound 3.16 µM) of 9.67 µM and an IC50 (second compound 10 µM) of under 0.0316 µM. It also gave a viability, T/C [1] of 106%, a viability, T/C [2] of 102% and a viability, T/C [3] of 125%. It also gave a viability, T/C [4] of 108%, a viability, T/C [5] of 126% and a viability, T/C [6] of 80.9%. It also gave a viability, T/C [7] of 122%, a viability, T/C [8] of 110% and a viability, T/C [9] of 98.9%. It also gave a viability, T/C [10] of 100%, a viability, T/C [11] of 100% and a viability, T/C [12] of 89.9%. The viability, T/C [13] was 109%, the viability, T/C [14] was 110% and the viability, T/C [15] was 87.1%. For the same molecule, the viability, T/C [16] was 122%, the viability, T/C [17] was 105% and the viability, T/C [18] was 99.8%. For the same molecule, the viability, T/C [19] was 114%, the viability, T/C [20] was 98.1% and the viability, T/C [21] was 103%. It also gave a viability, T/C [22] of 106%, a viability, T/C [23] of 119% and a viability, T/C [24] of 103%. The viability, T/C [25] was 82.1%, the viability, T/C [26] was 108% and the viability, T/C [27] was 71.5%. It also gave a viability, T/C [28] of 75.9%, a viability, T/C [29] of 98.4% and a viability, T/C [30] of 48.8%. It also gave a viability, T/C [31] of 28.3%, a viability, T/C [32] of 32% and a viability, T/C [33] of 37.6%. It also gave a viability, T/C [34] of 40%, a viability, T/C [35] of 31% and a viability, T/C [36] of 27.2%.
`CC(C)n1c(=O)n(C)c2cnc3cc(F)c(-c4ccc(OCCCN5CCCCC5)nc4)cc3c21` + Cc1[nH]c2ccc(F)cc2c1-c1nc2c3cccnc3c3ncccc3c2[nH]1 was tested, and the IC50 (second compound 0.0316 µM) was over 10 µM, the IC50 (second compound 0.1 µM) was over 10 µM and the IC50 (second compound 0.316 µM) was over 10 µM. For the same molecule, the IC50 (second compound 1 µM) was over 10 µM, the IC50 (second compound 3.16 µM) was 6.16 µM and the IC50 (second compound 10 µM) was 0.0435 µM. The viability, T/C [1] was 123%, the viability, T/C [2] was 91.5% and the viability, T/C [3] was 123%. For the same molecule, the viability, T/C [4] was 104%, the viability, T/C [5] was 101% and the viability, T/C [6] was 94.1%. The viability, T/C [7] was 101%, the viability, T/C [8] was 118% and the viability, T/C [9] was 94.2%. It also gave a viability, T/C [10] of 88.6%, a viability, T/C [11] of 118% and a viability, T/C [12] of 92.6%. For the same molecule, the viability, T/C [13] was 132%, the viability, T/C [14] was 115% and the viability, T/C [15] was 100%. It also gave a viability, T/C [16] of 112%, a viability, T/C [17] of 108% and a viability, T/C [18] of 91.5%. It also gave a viability, T/C [19] of 106%, a viability, T/C [20] of 116% and a viability, T/C [21] of 107%. For the same molecule, the viability, T/C [22] was 112%, the viability, T/C [23] was 98.4% and the viability, T/C [24] was 93%. It also gave a viability, T/C [25] of 89%, a viability, T/C [26] of 78.8% and a viability, T/C [27] of 86.7%. It also gave a viability, T/C [28] of 66.3%, a viability, T/C [29] of 73.6% and a viability, T/C [30] of 36.5%. For the same molecule, the viability, T/C [31] was 53%, the viability, T/C [32] was 40.7% and the viability, T/C [33] was 44.3%. The viability, T/C [34] was 29.6%, the viability, T/C [35] was 23.9% and the viability, T/C [36] was 19%.
`CC[C@@]1(O)C(=O)OCc2c1cc1n(c2=O)Cc2cc3c(CN(C)C)c(O)ccc3nc2-1` + Cc1[nH]c2ccc(F)cc2c1-c1nc2c3cccnc3c3ncccc3c2[nH]1 gave an IC50 (second compound 0.0316 µM) of over 0.316 µM, an IC50 (second compound 0.1 µM) of over 0.316 µM and an IC50 (second compound 0.316 µM) of over 0.316 µM. It also gave an IC50 (second compound 1 µM) of over 0.316 µM, an IC50 (second compound 3.16 µM) of 0.13 µM and an IC50 (second compound 10 µM) of under 0.000999 µM. The viability, T/C (second compound 0.0316 µM, first compound 0.000999 µM) was 92.6%, the viability, T/C (second compound 0.0316 µM, first compound 0.00316 µM) was 117% and the viability, T/C (second compound 0.0316 µM, first compound 0.00999 µM) was 116%. The viability, T/C [1] was 93.1%, the viability, T/C (second compound 0.0316 µM, first compound 0.0999 µM) was 91.5% and the viability, T/C [3] was 49.9%. It also gave a viability, T/C (second compound 0.1 µM, first compound 0.000999 µM) of 126%, a viability, T/C (second compound 0.1 µM, first compound 0.00316 µM) of 93.2% and a viability, T/C (second compound 0.1 µM, first compound 0.00999 µM) of 87.1%. For the same molecule, the viability, T/C [7] was 92%, the viability, T/C (second compound 0.1 µM, first compound 0.0999 µM) was 93.2% and the viability, T/C [9] was 58.8%. For the same molecule, the viability, T/C (second compound 0.316 µM, first compound 0.000999 µM) was 80.3%, the viability, T/C (second compound 0.316 µM, first compound 0.00316 µM) was 104% and the viability, T/C (second compound 0.316 µM, first compound 0.00999 µM) was 103%. For the same molecule, the viability, T/C [13] was 94.2%, the viability, T/C (second compound 0.316 µM, first compound 0.0999 µM) was 84% and the viability, T/C [15] was 61.9%. For the same molecule, the viability, T/C (second compound 1 µM, first compound 0.000999 µM) was 86.6%, the viability, T/C (second compound 1 µM, first compound 0.00316 µM) was 109% and the viability, T/C (second compound 1 µM, first compound 0.00999 µM) was 94.8%. For the same molecule, the viability, T/C [19] was 102%, the viability, T/C (second compound 1 µM, first compound 0.0999 µM) was 94.8% and the viability, T/C [21] was 54.3%. The viability, T/C (second compound 3.16 µM, first compound 0.000999 µM) was 77.8%, the viability, T/C (second compound 3.16 µM, first compound 0.00316 µM) was 79.4% and the viability, T/C (second compound 3.16 µM, first compound 0.00999 µM) was 81.4%. It also gave a viability, T/C [25] of 58.3%, a viability, T/C (second compound 3.16 µM, first compound 0.0999 µM) of 64% and a viability, T/C [27] of 24.5%. The viability, T/C (second compound 10 µM, first compound 0.000999 µM) was 36.6%, the viability, T/C (second compound 10 µM, first compound 0.00316 µM) was 35.9% and the viability, T/C (second compound 10 µM, first compound 0.00999 µM) was 48.3%. It also gave a viability, T/C [31] of 41.5%, a viability, T/C (second compound 10 µM, first compound 0.0999 µM) of 31.3% and a viability, T/C [33] of 17.5%.
